Values after ≈ are worked out from the molar mass of the structure shown. Some results are limits rather than exact numbers.

Some test systems named below: Shigella flexneri; Streptococcus agalactiae; Escherichia coli DC2; Escherichia coli UB1005; Staphylococcus aureus; Bacillus subtilis; Enterobacter cloacae; Pseudomonas aeruginosa; Escherichia coli; Escherichia coli W160-37.
What all share (assay): ≥ marks a high value that may be exact or a test limit, other limits are often not marked, values filed in µg/mL are converted to µM
Experiment [1] has as its system Escherichia coli ATCC 25922.
Experiment [2] has as its system Staphylococcus aureus ATCC 25923.
Experiment [3] deals with Bacillus subtilis ATCC 6633.
Experiment [4] relates to Listeria monocytogenes ATCC 7644.
For experiment [5], the system named is Salmonella enterica subsp. enterica serovar Typhi ATCC 6399.
The test system of experiment [6] is Escherichia coli ATCC 25726.
Experiment [7] relates to Staphylococcus aureus 127/08.
The test system of experiment [8] is Acinetobacter baumannii NM8.
In experiment [9] the test system is Stenotrophomonas maltophilia B32/1.
The subject of experiment [10] is Acinetobacter baumannii NM35.
Experiment [11] has as its system Stenotrophomonas maltophilia B32/4.
Experiment [12] deals with Micrococcus luteus ATCC 4698.
Experiment [13] deals with Staphylococcus aureus USA 300.
For experiment [14], the system named is Candida albicans ATCC 90028.
The test system of experiment [15] is Candida albicans ATCC 64550.
Experiment [16] concerns Staphylococcus epidermidis ATCC 12228.
For experiment [17], the system named is Staphylococcus aureus USA 100.
Experiment [18] relates to Staphylococcus aureus ATCC 29737.
For experiment [19], the system named is Pseudomonas aeruginosa ATCC 9027.
Experiment [20] concerns Corynebacterium xerosis C875.
The subject of experiment [21] is Pseudomonas aeruginosa ATCC 27853.
The test system of experiment [22] is Staphylococcus epidermidis C621.
The test system of experiment [23] is Salmonella enterica subsp. enterica serovar Typhi.

For the molecule `CC[C@H](C)[C@H](NC(=O)[C@H](CC(C)C)NC(=O)[C@H](CCCCN)NC(=O)[C@H](CC(C)C)NC(=O)[C@H](C)NC(=O)CNC(=O)[C@H](CCCCN)NC(=O)[C@H](C)NC(=O)[C@H](CC(C)C)NC(=O)[C@H](C)NC(=O)CNC(=O)[C@H](Cc1c[nH]c2ccccc12)NC(=O)[C@@H](N)Cc1ccccc1)C(=O)NCC(=O)N[C@H](C(=O)NCC(=O)N[C@@H](CO)C(=O)N[C@@H](CC(C)C)C(=O)N[C@@H](Cc1ccccc1)C(=O)N[C@@H](CO)C(=O)N[C@@H](CO)C(=O)N[C@@H](Cc1ccccc1)C(=O)N[C@@H](CO)C(=O)N[C@@H](CCCCN)C(=O)N[C@@H](CCCCN)C(=O)N[C@@H](CC(=O)O)C(=O)O)C(C)C` [FWGALAKGALKLIGVGSLFSSFSKKD], the minimal inhibitory concentration (MIC) (in general, the smallest concentration in the dilution series that meets the test's criterion for growth inhibition) in experiment [1] was 37.5 µM (≈ 102 µg/mL); in experiment [2] it was 75 µM (≈ 205 µg/mL); against Shigella flexneri, at least 37.5 µM; in [3], at least 37.5 µM; in experiment [4], at least 37.5 µM; against Streptococcus agalactiae, at least 37.5 µM. Also, the MIC in [5] is at least 37.5 µM.
For `CC[C@H](C)[C@@H]1NC(=O)[C@H](CCCCN)NC(=O)[C@@H](NC(=O)[C@H](C)NC(=O)[C@@H](NC(=O)[C@H](CC(C)C)NC(=O)[C@H](CC(=O)O)NC(=O)[C@@H](NC(=O)CNC(=O)[C@H](CC(C)C)NC(=O)[C@H](CCCCN)NC(=O)[C@H](C)NC(=O)[C@H](CC(C)C)NC(=O)[C@H](CC(=O)O)NC(=O)[C@H](CCCCN)NC(=O)CNC(=O)[C@H](CC(C)C)NC(=O)CN)C(C)C)C(C)C)CSSC[C@@H](C(=O)O)NC(=O)[C@H](CCC(N)=O)NC(=O)[C@H](CCCCN)NC(=O)[C@H](CO)NC1=O` [GLGKDLAKLGVDLVACKISKQC], the MIC was over 200 µM in experiment [2]; at least 200 µM in experiment [6]; at least 200 µM in experiment [7]; at least 200 µM in experiment [8]; at least 200 µM in experiment [9]; at least 200 µM in experiment [10]. The MIC in experiment [11] is at least 200 µM.
As to `CC[C@H](C)[C@H](N)C(=O)N[C@@H](C)C(=O)N[C@@H](CCC(N)=O)C(=O)N[C@@H](CCC(N)=O)C(=O)N[C@@H](C)C(=O)N[C@@H](C)C(=O)N[C@@H](CC(N)=O)C(=O)N[C@H](C(=O)N[C@@H](C)C(=O)N[C@@H](C)C(=O)N[C@H](C(=O)N[C@@H](C)C(=O)N[C@@H](CCCN=C(N)N)C(=O)NCC(=O)O)[C@@H](C)O)C(C)C` [IAQQAANVAATARG], the MIC in experiment [12] was found to be 8.84 µM (≈ 11.9 µg/mL).
With `CC[C@H](C)[C@H](N)C(=O)N[C@@H](CCCCN)C(=O)N[C@H](C(=O)N[C@@H](CCCCN)C(=O)N[C@H](C(=O)N[C@@H](CCCCN)C(=O)N[C@H](C(=O)N[C@@H](CCCCN)C(N)=O)[C@@H](C)CC)[C@@H](C)CC)[C@@H](C)CC` [IKIKIKIK], the minimal inhibitory concentration (MIC) in experiment [13] came out at 25 µM (≈ 24.6 µg/mL); in [1], 31.8 µM (≈ 31.3 µg/mL); in [14] it was 1.56 µM (≈ 1.53 µg/mL); in experiment [15], 3.13 µM (≈ 3.07 µg/mL); in experiment [16], 2.03 µM (≈ 2 µg/mL); in [17], 25 µM (≈ 24.6 µg/mL). Besides, the minimal inhibitory concentration (MIC) in experiment [18] was at least 127 µM; in experiment [19] it was 6.25 µM (≈ 6.14 µg/mL).
With `C[C@H](NC(=O)[C@H](C)NC(=O)[C@H](C)NC(=O)[C@H](Cc1c[nH]c2ccccc12)NC(=O)[C@H](Cc1ccccc1)NC(=O)[C@H](C)NC(=O)[C@H](C)NC(=O)[C@H](C)NC(=O)[C@H](C)NC(=O)[C@H](CCCCN)NC(=O)[C@H](CCCCN)NC(=O)[C@H](CCCCN)NC(=O)[C@H](CCCCN)NC(=O)[C@H](CCCCN)NC(=O)[C@@H](N)CCCCN)C(=O)N[C@@H](C)C(=O)N[C@@H](Cc1ccccc1)C(N)=O` [KKKKKKAAAAFWAAAAF], the minimum inhibitory concentration (MIC) amounted to 16 µM (≈ 29.4 µg/mL) in [1]; 0.5 µM (≈ 0.918 µg/mL) in the experiment on Escherichia coli DC2; 2 µM (≈ 3.67 µg/mL) in the experiment with Escherichia coli UB1005; 0.5 µM (≈ 0.918 µg/mL) in [20]; 16 µM (≈ 29.4 µg/mL) in experiment [21]; 8 µM (≈ 14.7 µg/mL) in experiment [22].
With `CC(C)C[C@H](NC(=O)[C@H](CCCCN)NC(=O)[C@H](CCCCN)NC(=O)[C@H](Cc1ccccc1)NC(=O)[C@H](Cc1ccccc1)NC(=O)[C@H](CCCCN)NC(=O)[C@H](CCCCN)NC(=O)[C@H](C)NC(=O)[C@H](CCCN=C(N)N)NC(=O)[C@@H](N)CCCCN)C(=O)N[C@@H](CCCCN)C(N)=O` [KRAKKFFKKLK], the MIC in experiment [15] is at least 100 µM.
As for `CC(C)C[C@H](NC(=O)[C@H](CCCCN)NC(=O)[C@H](CCCN=C(N)N)NC(=O)[C@H](Cc1ccccc1)NC(=O)[C@H](Cc1ccccc1)NC(=O)[C@H](CCCCN)NC(=O)[C@H](CCCCN)NC(=O)[C@H](Cc1ccccc1)NC(=O)[C@H](CCCN=C(N)N)NC(=O)[C@H](CCCCN)NC(=O)[C@@H](NC(=O)[C@@H](N)CC(C)C)C(C)C)C(=O)N[C@@H](CCCCN)C(=O)N[C@@H](CCCCN)C(=O)N[C@@H](CO)C(=O)N[C@H](C(=O)N[C@@H](CCCCN)C(=O)N[C@@H](CCCCN)C(N)=O)C(C)C` [LVKRFKKFFRKLKKSVKK], the minimal inhibitory concentration (MIC) in experiment [1] came out at 6.93 µM (≈ 16 µg/mL); in [2], 1.73 µM (≈ 4 µg/mL); in the experiment with Staphylococcus aureus, 55.4 µM (≈ 128 µg/mL); in experiment [23], 0.866 µM (≈ 2 µg/mL); in experiment [14], 27.7 µM (≈ 64 µg/mL); in the experiment with Bacillus subtilis it was 27.7 µM (≈ 64 µg/mL). Further, the minimal inhibitory concentration (MIC) in the experiment on Enterobacter cloacae was at least 55.4 µM; in the experiment on Pseudomonas aeruginosa, 3.46 µM (≈ 8 µg/mL); in experiment [21], 27.7 µM (≈ 64 µg/mL); with Escherichia coli, 55.4 µM (≈ 128 µg/mL).
Turning to `CC(C)C[C@H](NC(=O)[C@H](CCCCN)NC(=O)[C@H](CCCN=C(N)N)NC(=O)[C@H](Cc1ccccc1)NC(=O)[C@H](Cc1ccccc1)NC(=O)[C@H](CCCCN)NC(=O)[C@H](CCCCN)NC(=O)[C@H](Cc1ccccc1)NC(=O)[C@H](CCCN=C(N)N)NC(=O)[C@H](CCCCN)NC(=O)[C@@H](NC(=O)[C@@H](N)CC(C)C)C(C)C)C(=O)N[C@@H](CCCCN)C(=O)N[C@@H](CCCCN)C(=O)N[C@@H](CO)C(=O)N[C@H](C(=O)N[C@@H](CCCCN)C(N)=O)C(C)C` [LVKRFKKFFRKLKKSVK], the MIC in [1] is 117 µM (≈ 256 µg/mL); in [2], 117 µM (≈ 256 µg/mL); against Staphylococcus aureus it was 58.7 µM (≈ 128 µg/mL); in experiment [23], 0.917 µM (≈ 2 µg/mL); in experiment [14], 14.7 µM (≈ 32 µg/mL); in the experiment on Bacillus subtilis, 14.7 µM (≈ 32 µg/mL). The minimum inhibitory concentration (MIC) with Enterobacter cloacae stood at 14.7 µM (≈ 32 µg/mL); against Pseudomonas aeruginosa it was 1.83 µM (≈ 4 µg/mL); in experiment [21], 29.3 µM (≈ 64 µg/mL); in the experiment on Escherichia coli, 14.7 µM (≈ 32 µg/mL).
In experiment [12], `NCCCC[C@H](NC(=O)[C@H](CO)NC(=O)[C@H](Cc1cnc[nH]1)NC(=O)[C@H](CCCN=C(N)N)NC(=O)[C@H](Cc1cnc[nH]1)NC(=O)[C@H](CO)NC(=O)[C@H](CCC(N)=O)NC(=O)[C@H](Cc1ccc(O)cc1)NC(=O)[C@@H](N)CC(N)=O)C(=O)N[C@@H](CO)C(=O)O` [NYQSHRHSKS] registered an MIC of at least 75 µM.
On to `CC[C@H](C)[C@H](NC(=O)[C@H](Cc1c[nH]c2ccccc12)NC(=O)[C@H](CCCCN)NC(=O)[C@H](CC(C)C)NC(=O)[C@H](Cc1ccccc1)NC(=O)[C@@H](NC(=O)[C@H](CCCCN)NC(=O)[C@H](CC(C)C)NC(=O)[C@H](CC(C)C)NC(=O)[C@H](CCCCN)NC(=O)[C@@H]1CCCN1)[C@@H](C)O)C(=O)NCC(=O)O` [PKLLKTFLKWIG], for which the values for the minimum inhibitory concentration (MIC) against Staphylococcus aureus and against Escherichia coli W160-37 were 14 µM (≈ 20.2 µg/mL) and 25 µM (≈ 36.1 µg/mL), respectively.

(Values after DBAASP.)
